Results on 6 molecules are retold here after patent US20250319068A1, “TREATMENT OF DISEASES VIA ADMINISTRATION OF BUNTANETAP AND AN […] AGENT” (ANNOVIS BIO, INC., priority 2024, published 2025).

In series [1] the test system is dementia with Lewy bodies (DLB) in men. The following applies: cited from earlier work; for risk of DLB lower compared to 5ARIs / risk of DLB lower compared to tamsulosin: terazosin, doxazosin, or alfuzosin pooled.
For series [2] the following is noted: clinical studies; cited from earlier work.
Series [3] relates to fully differentiated Down syndrome nerve cells. The following applies: cited from earlier work.
For series [4], the system named is human SNCAA53T tg mouse model of PD. The following applies: cited from earlier work.
Series [5] has as its system traumatic brain injury rats. The following applies: cited from earlier work.
Series [6] concerns APP and its fragments. In words: APP in vivo in APP/PS1 transgenic AD mice, hippocampus (FIG. 2A). Details: species or system mouse. The source says:
FIG. 2A is a Table, collection of graphs and a Western blot showing that buntanetap treatment of APP/PS1 transgenic AD mice reduced APP and its fragments in hippocampus.
FIG. 2A, APP in vivo. […] GAPDH and Synaptophysin were loading controls. FIG. 2 also includes a collection of graphs showing relative density of APP plotted against control and time after buntanetap treatment; relative density of CTFβ plotted against control and time after buntanetap treatment; relative density of CTFα plotted against control and time after buntanetap treatment; Aβ42 levels in brain tissue plotted against control and time after buntanetap treatment; and Aβ40 levels in brain tissue plotted against control and time after buntanetap treatment. Finally, FIG. 2 also includes a Western blot showing levels of APP, NSB, CTFβ, and CTFα after buntanetap treatment over time (minutes).

The test system of the next series is Huntingtin Protein. The following applies: through Translational Suppression; cited from earlier work.
Series [7] relates to APP and its fragments. The following applies: APP/PS1 transgenic mice; cited from earlier work.
The subject of another series is rat acute glaucoma model. The following applies: cited from earlier work.
For series [8] the following is noted: cited from earlier work.
The subject of series [9] is APP. The following applies: neuroblastoma cells; cited from earlier work.
Series [10] concerns Ts65dn mouse model of Down Syndrome (DS). The following applies: cited from earlier work.
Series [11] deals with tau. The following applies: unpublished observation, Peter Davies Laboratory; cited from earlier work.
The test system of series [12] is patients with mild to moderate AD. In words: Phase II/III trial in mild to moderate AD, 12 weeks (NCT05686044). The format is in vivo, human. The procedure:
A randomized, double-blind, placebo-controlled Phase II/III study trial investigating the efficacy, safety, and tolerability of buntanetap in patients with mild to moderate AD was conducted. This was a dose-ranging study where patients received either one of three doses of buntanetap (7.5 mg, 15 mg, or 30 mg) or placebo on top of their standard of care for 12 weeks. In this study, over 700 patients were screened, a total of 353 patients were enrolled, and 325 patients completed the study across 54 sites in the US. The study included mild to moderate AD patients whose Mini Mental State Examination (MMSE) scores at baseline ranged from 14 to 24. (www.clinicaltrials.gov (NCT05686044)).
Beyond safety, the trial assessed the changes in two co-primary endpoints: Alzheimer's Disease Assessment Scale-Cognitive Subscale 11 (ADAS-Cog 11) and Alzheimer's Disease Cooperative Study Clinician's Global Impression of Change (ADCS-CGIC), which assess cognition and activities of daily living. The study monitored for safety and collected plasma to measure several biomarkers to assess the disease state, potential disease progression, and treatment effects.
The treatment response in the current study was not related to a patient's age or sex.
EOT-End of Treatment *P<0.05; **P<0.01; ***P<0.001.
When the baseline MMSE scores for patients positive for AD according to their pTau217/tTau >4.2% ratio were subdivided, a dose-dependent relationship to MMSE at baseline was observed. It was concluded that the response to buntanetap treatment is more pronounced in mild AD patients than in those with more advanced AD. The response in the 30 mg dose treatment group R2=0.17 (R^2 or the coefficient of determination), p <0.001, indicates statistical significance of the MMSE score, which was not evident in the placebo group.

For series [13], the system named is APP. The series is described as follows: APP in vitro, Western blot in SH-SY-5Y cells (FIG. 1). The format is cell-based. The following applies: SH-SY-5Y human neuroblastoma cells; 0, 0.1, 1, 5 and 10 μM. (A western blot detects proteins with antibodies after separation by electrophoresis.)
Series [14] relates to APP/PS1 transgenic (tg) mouse model of AD. The following applies: cited from earlier work.
Series [15] has as its system CSF levels of sAPPα, sAPPβ, Aβ42, Tau (total and phosphorylated), alpha-synuclein and inflammatory markers. The series is described as follows: Study of MCI subjects: CSF biomarkers before and after 10 days of buntanetap. The following applies: before and after 10 days of administration.
Source text: FIG. 3 is a study of subjects with mild cognitive impairment (MCI) for early proof of mechanism (POM) using a well-tolerated dose of buntanetap. Before and after 10 days of buntanetap administration to the MCI subjects, plasma, and cerebrospinal fluid (CSF) samples were obtained for analysis of levels of secreted(s) APPα and APPβ, and Aβ42, Tau (total and phosphorylated), and inflammatory markers.
Series [16] can be described thus: Phase 1 single and multiple ascending dose safety, tolerance, pharmacokinetic studies. The following applies: pharmacokinetic analyses of Phase I studies.
Procedure: This publication reported the results of a Phase 2a Clinical Study which was a double-blind, placebo-controlled, multi-center study of 14 early AD patients and 54 early PD patients. AD patients were given either 80 mg buntanetap or placebo QD. PD patients were given 5 mg, 10 mg, 20 mg, 40 mg, 80 mg buntanetap or placebo QD. The primary endpoint was safety and tolerability; secondary endpoint is pharmacokinetics of buntanetap in plasma.
The double phase 2 clinical trial recruited 14 AD (Alzheimer's disease) and 54 patients and treated them over 25 with a once daily dose of buntanetap. The 14 AD patients receive either 80 mg QD or placebo, whereas the 54 PD (Parkinson's disease) patients received 5, 10 20, 40 80 mg QD or placebo.
The test system of series [17] is CSF levels of sAPPα, sAPPβ, Aβ42, Tau (total and phosphorylated), alpha-synuclein and inflammatory markers. The following applies: cited from earlier work.
For series [18], the system named is αSYN. The following applies: neuroblastoma cells; cited from earlier work.
In series [19] the test system is tau. The following applies: Human tau mice; unpublished observation; cited from earlier work.
In series [20] the test system is αSYN. The following applies: transgenic Parkinson's animals; cited from earlier work.
Series [21] has as its system early AD patients and early PD patients. The following applies: cited from earlier work.
Setting [22] is: men newly started on terazosin, doxazosin, or alfuzosin (pooled) vs matched men taking tamsulosin.

“Also recorded” adds a separate entry of the source. Read-outs that look alike come from different tables or passages of the source.

Take `COc1cc2nc(N(C)CCCNC(=O)C3CCCO3)nc(N)c2cc1OC` (stereo not drawn) [alfuzosin]: the “hazard ratio [HR] of developing DLB” value in series [1] (setting [22]) is 0.60. For the same molecule, in series [1], the “risk of DLB lower compared to 5ARIs” value was 37% and the “risk of DLB lower compared to tamsulosin” value is reported as 40%. Further, the “hazard ratio [HR] of developing DLB” value in series [1] (vs matched men taking 5ARI) was 0.73.
Turning to `CCOc1ccccc1OCCN[C@H](C)Cc1ccc(OC)c(S(N)(=O)=O)c1` [tamsulosin], the “hazard ratio [HR] of developing DLB” value in [1] (vs matched men taking 5ARI) is recorded as 1.17.
`CN1CC[C@@]2(C)c3cc(OC(=O)Nc4ccccc4)ccc3N(C)[C@@H]12` [phenserine, (−)-N-phenylcarbamoyl eseroline]: the side effects result in series [2] is “high cholinomimetic side effects”.
Turning to `COc1cc2nc(N3CCN(C(=O)C4CCCO4)CC3)nc(N)c2cc1OC` (stereo not drawn) [terazosin], the “hazard ratio [HR] of developing DLB” value in series [1] (setting [22]) is recorded as 0.60; in series [1] (vs matched men taking 5ARI) it was 0.73. The “risk of DLB lower compared to 5ARIs” value in series [1] is recorded as 37%. In addition, the “risk of DLB lower compared to tamsulosin” value in series [1] is reported as 40%.
For the molecule `COc1cc2nc(N3CCN(C(=O)C4COc5ccccc5O4)CC3)nc(N)c2cc1OC` (stereo not drawn) [doxazosin], the entries for the “hazard ratio [HR] of developing DLB” value in [1] (setting [22]) and in series [1] (vs matched men taking 5ARI) were 0.60 and 0.73, respectively. Moreover, the “risk of DLB lower compared to 5ARIs” value in [1] is 37%. For the same molecule, the “risk of DLB lower compared to tamsulosin” value in series [1] is recorded as 40%.
Regarding `CN1CC[C@]2(C)c3cc(OC(=O)Nc4ccccc4)ccc3N(C)C12` (stereo partly drawn) [Buntanetap, (3aR)-1,3a,8-trimethyl-1,2,3,3a,8,8a-hexahydropyrrolo[2,3-b]indol-5-yl phenylcarbamate], the “anterograde and retrograde vesicle transport” value in series [3] was “Normalized anterograde and retrograde vesicle transport”. For the same molecule, the colonic motility result in series [4] was “Restored colonic motility”. Moreover, in series [5] (after TBI), the “inflammation in the rat brain” value is listed as “lowered inflammation” and the “nerve cell protection in rat substantia Ingra” value is listed as “protected nerve cells”. The “synaptic transmission in rat striatum” value in [5] (after traumatic brain injury (TBI)) was “Normalized impaired synaptic transmission”. The memory and learning entry in series [5] (traumatic brain injury rats) is “Preserved memory and learning”. For the same molecule, the “duration of reduction of APP and all related peptides in hippocampus after the last dose” value in the series on APP and its fragments [6] (APP/PS1 mice) is “at least 9 hours”. The “APP and its fragments in hippocampus” value in the series with APP and its fragments [6] (APP/PS1 transgenic AD mice) is “reduced”. Further, the “levels of Huntingtin Protein” value with Huntingtin Protein is recorded as “reduced the levels of Huntingtin Protein”. The “levels of APP and all its fragments” value in the series on APP and its fragments [7] is “lowers levels of APP and all its fragments”. In addition, in the series on rat acute glaucoma model (acute glaucoma), the retina result was “Preserved the retina”. Further, in the series with rat acute glaucoma model (rat acute glaucoma model), the nerve cell protection result is recorded as “protected nerve cells”. Further, the tolerability entry in series [8] (healthy human volunteers, doses up to 4×60 mg daily X 10 days) is reported as “well tolerated”. Also, the terminal half-life in series [8] (plasma, cleared biphasically) was 4.3 to 4.7 h. In addition, in the series on APP [9], the “levels of APP in vitro” value is “lowers levels of APP”. In [10], the memory and learning result is “Restored memory and learning”. Besides, the tau in vitro result in the series with tau [11] is “lowers tau”. Also, in series [12] (7.5 mg), the “Non-Responders (Number)” value turned out to be 5, the “Non-Responders (Percentage)” value is recorded as “(26.32%)”, the “Responders (Number)” value was 14 and the “Responders (Percentage)” value is “(73.68%)**”. In [12] (15 mg), the “Non-Responders (Number)” value worked out at 7, the “Non-Responders (Percentage)” value is recorded as “(28.00%)”, the “Responders (Number)” value was determined as 18 and the “Responders (Percentage)” value was “(72.00%)**”. In addition, in [12] (30 mg), the “Non-Responders (Number)” value amounted to 3, the “Non-Responders (Percentage)” value was “(12.50%)”, the “Responders (Number)” value was determined as 21 and the “Responders (Percentage)” value is on record as “(87.50%)***”. Further, the “difference in the proportion of participants who improved relative to placebo” value in [12] (30 mg group) is “three-fold difference”. In series [12] (patients with mild AD, each treatment dose), the “ADAS-Cog 11 scores relative to placebo” value is “significantly higher improvement”. Moreover, in the series with APP [13], the “APP in relation to Actin standard (Western blot)” value is recorded as “lowers APP in vitro in a dose-dependent manner”. The “synaptic transmission in hippocampus” value in series [14] (APP/PS1 tg mice) is recorded as “Normalized impaired synaptic transmission”. For the same molecule, the memory and learning result in [14] (APP/PS1 tg mouse model of AD) is “Restored memory and learning”. In addition, the “APP/Aβ, tau/phosphor-tau and alpha-synuclein in the spinal fluid (FIG. 3)” value in series [15] is reported as “normalized”. The “brain concentration relative to plasma” value in series [16] is listed as “about 8 times”. In addition, in series [17] (CSF sampling period after the last dose), the “duration of effect in lowering neurotoxic proteins and inflammation after the last dose” value is on record as no less than 12 h. Also, the “levels of APP, Tau, and αSYN in the cerebrospinal fluid (CSF)” value in [17] (MCI subjects, 4×60 mg/day) is on record as “normalized”. Further, in series [17] (MCI subjects), the “half-life in CSF” value is given as greater than 12 h and the “inflammation in human CSF” value was “lowered inflammation”. In addition, in series [17] (five MCI subjects), the “CSF Aβ42” value is listed as “trend to lower”; the “CSF levels of sAPPα, sAPPβ, t-tau, p-tau, and specific inflammatory markers” value is listed as “significantly lowered”. In addition, the αSYN in vitro entry in the series on αSYN [18] is on record as “lowers αSYN”. Besides, in the series with tau [19], the tau in vivo result is given as “lowers tau”. The “αSYN in vivo in the brain and in the gut” value in the series on αSYN [20] was “lowers αSYN”. For the same molecule, in series [21] (AD and PD cohorts), the “axonal integrity and synaptic function” value is recorded as “improving; also recorded: improved”; the “inflammatory factors / markers” value is “trend in lowering levels; also recorded: reduced”; the neurotoxic protein biomarkers entry is listed as “trend in lowering levels; also recorded: reduced”. In addition, the safety and tolerability result in series [21] (AD and PD patients, doses up to 80 mg) was “well tolerated; also recorded: safe and promising”. In addition, in [21] (AD and PD patients), the “crossing of the blood brain barrier” value is “crossed the blood brain barrier”. Moreover, in series [21] (AD patients, 80 mg QD), the “ADAS-Cog11 and WAIS coding (cognition)” value is “statistically significant improvements; also recorded: improved cognition”. The “motor function as measured by MDS-UPDRS (Part II, III, IV and total)” value in series [21] (PD patients, 5-80 mg QD, maximum improvement for 10 & 20 mg) is given as “improved at all doses motor function”. In addition, in [21] (PD patients), the “MDS-UPDRS and WAIS coding” value is reported as “statistically significant improvements”; the “WAIS speed and accuracy” value is recorded as “improved”. Also, the “Cmax and AUC” value in series [21] (plasma, up to 80 mg QD) was “increased with dose without evidence for a plateau”.
